Measurements: paper PMC10267570, “Characterization of the cholesterol biosynthetic pathway in Dioscorea transversa” (The Journal of Biological Chemistry, 2023)

Target: T1, CYP51Dt (D. transversa sterol 14α-demethylase)
T1 construct: gene CYP51; C-terminal hexa-histidine tag
Experiment: UV–visible difference spectroscopy titration (type I spectrum) of purified P450; also turnover with CPRDt/NADPH by GC–MS
Type: binding, Dioscorea transversa

C=C(CC[C@@H](C)[C@H]1CC[C@@]2(C)C3=C(CC[C@]12C)[C@@]1(C)CC[C@H](O)[C@@H](C)[C@@H]1CC3)C(C)C [compound 7, obtusifoliol]
Kd: 800 ± 250 nM

CC(C)CCC[C@@H](C)[C@H]1CC[C@@]2(C)C3=C(CC[C@]12C)[C@@]1(C)CC[C@H](O)[C@@H](C)[C@@H]1CC3 [compound 19, 4-desmethyl-24,25-dihydrolanosterol]
Kd: 2400 ± 180 nM
